Read-outs that look alike come from different tables or passages of the source.
Columns and labels:
[1] = system: GREB1, AGR3 transcription in T47D, EFM-19, HCC1500; experiment: ER pathway activity, RT-QPCR of GREB1 and AGR3; assay type: cell-based, human; conditions: 1 μM, 1 nM E2, 24 h
Method: HCC1500, T47D, and EFM-19 were cultured in hormone deprivation media with 10% charcoal-stripped FBS for at least 3 days before assay. Trypsinized cells were seeded in a 12-well plate, stimulated with 1 nM E2, and treated with/without 1 μM compounds for 24 h. Total RNA was extracted using QIAGEN RNeasy Plus Mini Kit (Qiagen), according to the manufacturer’s protocol. The concentration of RNA samples was determined using NanoDrop 8000 (Thermo Scientific). SYBR Green expression assay (Qiagen#204154) was used to quantify GREB1 (Forward primer: […]; reverse primer: […]), AGR3 (Forward primer: […]; reverse primer: […]) and the house-keeping genes actin (OriGene#HP204660). The relative quantities were determined using ΔΔ threshold cycle (ΔΔCt), according to the manufacturer’s instructions (Applied Biosystems).
MCF7 with hormone-deprived pre-treatment were administrated ER ligands or not present with 1 nM E2 stimulation for 24 h incubation in a 12-well plate. Total mRNA was isolated from treated cells and sequenced on an Illumina HiSeq X Ten platform. FPKM of each gene was calculated using Cufflinks and Differential expression genes analysis by using the DESeq (2012) R package. Four separate clusters were obtained. […] Endometrial height was assessed from the basement membrane to the luminal border (scale bar in green lines: 200 μm), Arrows indicate the uterine epithelium (e).

[2] = system: ER + breast cancer cell lines; experiment: Proliferation assay across ER-positive cell panel; assay type: cell-based, human; conditions: 7 days
Method: Trypsinized cells were dispensed into 384-well plates in culture media and after overnight incubation cells were treated with compounds for 7 days. Cell viability was assessed using CellTiter-Glo (Promega) according to the manufacturer’s protocol and relative luminescence units (RLU) were measured using an Envision Multilabel Reader (Perkin Elmer). […] IC50 and Imax were analyzed with IDBS XLfit.
MCF7 cells were seeded in a 384-well plate and linear-dilution compounds were administrated in duplicate for each treatment. After incubation for 24 h, Cells in the assay pate were treated as described in methods. ERα levels were quantified by immunofluorescence assay. […] Data are given as mean ± SEM. b The maximal ERα degradation across an ER-positive cell panel was evaluated in an In-cell Western assay. Cells were dispended into 96-well plates and incubated for 24 h with compounds (100 nM) treatment. […] Cells were seeded in 384-well plates and treated with linear-dilution compounds for 7 days of incubation. Cell viability was assessed using CellTiter-Glo. Cell growth inhibition is presented as a percentage of CellTiterGlo activity relative to the vehicle control. […] WT (e) and ER. Y537S cells (f). […] Then cells in each well were collected and the targeting proteins in lysate supernatant were detected by WB

advanced breast cancer = conditions: cited from earlier work; for PFS: second-line
[3] = system: intracranial MCF-7 tumors; experiment: Intracranial MCF-7 tumor model; assay type: in vivo, mouse
Method: Female NPG mice were used for the intracranial MCF-7 tumor model. Three days before tumor cell implantation, estrogen pellets (0.72 mg, 17β-Estradiol, 60-day release, Innovative Research of America, Sarasota, FL, USA) were implanted subcutaneously. Each mouse was intracranially injected with 2 × 10^6 MCF-7 (ATCC) cells. […] Survival of mice was evaluated until Day 60. Mice were euthanized with weight loss exceeding 20% or moribund. On Day 60, all the mice remaining alive were euthanized. Before euthanasia, the mice were perfused with 4% paraformaldehyde and the brain tissues were collected for H&E staining using A[…] (Leica, Wetzlar, Germany).
(§1) Statistical and graphical presentations were performed using IDBS XLfit and GraphPad Prism 9. For cell proliferation assays, the IC50 was calculated by fitting a dose–response curve using a nonlinear regression model with a log(inhibitor) vs response curve fit. […] P-values < 0.05 were considered statistically significant.

[4] = system: MCF-7 subcutaneous tumors; experiment: MCF-7 subcutaneous xenograft mouse model; assay type: in vivo; conditions: MCF7 sc, 250 mg/kg subcutaneous once a week
Method: Female Balb/c nude mice were used for MCF-7 and T47D tumor subcutaneous xenograft studies. At least one day before tumor cell implantation, estrogen pellets (0.18 mg, 17β-Estradiol, 60-day release, Innovative Research of America, Sarasota, FL, USA) were implanted subcutaneously. Each mouse was subcutaneously injected with 1 × 10^7 MCF-7 (ECACC) or T47D cells in the right flank, and tumor growth was monitored. The long diameter (a) and the short diameter (b) of the tumor were measured using a caliper, and the tumor volume was calculated using the following formula: V = 0.5 × a × b^2. […] Tumor volumes were evaluated twice per week. Treatment tolerability was assessed by body weight measurements and frequent observation for clinical signs of treatment-related adverse effects.
as §1

Structure (SMILES) | AGR3 transcription ([1]; EFM-19 and HCC1500) | anti-proliferation potency in ER + cell panel [2] | AGR3 and GREB1 transcription ([1]; T47D, EFM-19, and HCC1500) | OS (advanced breast cancer; 250 mg dose regimen ref 16) | OS (advanced breast cancer; Fulvestrant HD 500 mg ref 16) | PFS (advanced breast cancer; higher value of 6.5 vs. 5.5 (Fulvestrant HD 500 mg) ref 16) | PFS (advanced breast cancer; lower value of 6.5 vs. 5.5 (250 mg dose regimen) ref 16) | median survival time ([3]; 250 mg/kg subcutaneous once a week) | tumor cell infiltration in brain tissues (H&E) ([3]; Fulvestrant 250 mg/kg, SCR-6852 3 mg/kg) | TGI [4]
CC/C(=C(\c1ccc(O)cc1)c1ccc(OCCN(C)C)cc1)c1ccccc1 [4-OH-tamoxifen] | significant increase | less potent than all tested SERDs |  |  |  |  |  |  |  | 
C[C@]12CC[C@@H]3c4ccc(O)cc4C[C@@H](CCCCCCCCC[S+]([O-])CCCC(F)(F)C(F)(F)F)[C@H]3[C@@H]1CC[C@@H]2O (stereo partly shown) [Fulvestrant] |  |  | significantly downregulated | 22.3 months | 26.4 months | 6.5 months | 5.5 months | 27 days | significant tumor cells infiltration | 28.84%
